Read-outs that look alike come from different tables or passages of the source.
What was measured:
Type in all cases: biochemical
JNK2 = JNK2 (Homo sapiens, UniProt P45984); assay: Kinase IC50, 33P labeled isotope method
ERK7/MAPK15 = target: T1, ERK7/MAPK15 (Homo sapiens, UniProt Q8TD08); assay: Kinase IC50, 33P labeled isotope method
T1 sequence (Q8TD08 13-304 limits assumed): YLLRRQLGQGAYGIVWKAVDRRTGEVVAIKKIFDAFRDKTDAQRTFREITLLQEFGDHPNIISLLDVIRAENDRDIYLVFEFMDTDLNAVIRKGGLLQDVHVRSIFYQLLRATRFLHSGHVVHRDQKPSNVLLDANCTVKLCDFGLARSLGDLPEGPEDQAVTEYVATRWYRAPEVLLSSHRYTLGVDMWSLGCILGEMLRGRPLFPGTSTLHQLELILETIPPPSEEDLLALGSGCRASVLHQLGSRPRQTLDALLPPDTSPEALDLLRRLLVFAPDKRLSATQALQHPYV

CDK3/cyclin E = CDK3/cyclin E (Homo sapiens, UniProt Q00526); assay: Kinase IC50, 33P labeled isotope method
Sequence of CDK3/cyclin E (Q00526 4-286 limits assumed): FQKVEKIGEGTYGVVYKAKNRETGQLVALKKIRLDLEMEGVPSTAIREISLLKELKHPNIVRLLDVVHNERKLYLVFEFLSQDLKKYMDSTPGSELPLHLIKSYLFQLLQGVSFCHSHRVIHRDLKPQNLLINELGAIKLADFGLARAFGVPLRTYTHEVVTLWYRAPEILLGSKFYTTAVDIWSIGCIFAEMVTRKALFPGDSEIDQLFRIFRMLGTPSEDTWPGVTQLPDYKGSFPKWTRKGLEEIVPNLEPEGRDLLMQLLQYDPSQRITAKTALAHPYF
Sequence of CDK3/cyclin E (P24864 whole entry partner): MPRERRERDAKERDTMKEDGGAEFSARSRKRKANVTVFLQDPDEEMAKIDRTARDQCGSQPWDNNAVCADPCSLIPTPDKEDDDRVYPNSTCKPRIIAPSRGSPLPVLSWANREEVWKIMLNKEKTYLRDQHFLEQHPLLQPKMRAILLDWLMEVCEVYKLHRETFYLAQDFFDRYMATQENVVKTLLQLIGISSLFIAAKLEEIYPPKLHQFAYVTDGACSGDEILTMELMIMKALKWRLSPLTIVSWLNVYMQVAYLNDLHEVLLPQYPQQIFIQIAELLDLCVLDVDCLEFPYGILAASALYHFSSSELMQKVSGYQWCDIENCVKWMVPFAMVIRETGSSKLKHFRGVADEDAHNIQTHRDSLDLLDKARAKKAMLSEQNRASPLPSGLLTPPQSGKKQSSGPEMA

CDK1/cyclin E = CDK1/cyclin E (Homo sapiens, UniProt P06493); assay: Kinase IC50, 33P labeled isotope method
Sequence of CDK1/cyclin E (P06493 4-287 limits assumed): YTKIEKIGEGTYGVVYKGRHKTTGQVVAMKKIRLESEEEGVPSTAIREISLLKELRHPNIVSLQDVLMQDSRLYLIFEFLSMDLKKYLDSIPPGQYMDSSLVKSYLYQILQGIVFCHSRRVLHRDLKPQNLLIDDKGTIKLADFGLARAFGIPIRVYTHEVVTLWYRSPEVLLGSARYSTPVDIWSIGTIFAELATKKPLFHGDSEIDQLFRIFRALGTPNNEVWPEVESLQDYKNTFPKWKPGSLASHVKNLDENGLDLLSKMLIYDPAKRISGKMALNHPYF
Sequence of CDK1/cyclin E (P24864 whole entry partner): as the sequence (P24864 whole entry partner) above

CDK1/cyclin B = CDK1/cyclin B (Homo sapiens, UniProt P06493); assay: Kinase IC50, 33P labeled isotope method
Sequence of CDK1/cyclin B (P06493 4-287 limits assumed): as the sequence (P06493 4-287 limits assumed) above
Sequence of CDK1/cyclin B (P14635 whole entry partner): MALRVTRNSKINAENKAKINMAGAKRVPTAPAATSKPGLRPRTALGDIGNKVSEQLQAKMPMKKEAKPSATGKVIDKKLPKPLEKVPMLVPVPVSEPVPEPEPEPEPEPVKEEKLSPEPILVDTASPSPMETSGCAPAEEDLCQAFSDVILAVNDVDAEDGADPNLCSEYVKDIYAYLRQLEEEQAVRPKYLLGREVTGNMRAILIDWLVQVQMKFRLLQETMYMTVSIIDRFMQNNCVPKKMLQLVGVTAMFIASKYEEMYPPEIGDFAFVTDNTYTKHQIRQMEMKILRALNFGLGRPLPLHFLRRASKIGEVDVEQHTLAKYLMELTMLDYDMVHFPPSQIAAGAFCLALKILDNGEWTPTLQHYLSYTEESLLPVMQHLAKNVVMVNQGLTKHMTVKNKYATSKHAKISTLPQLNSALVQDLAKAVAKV

FLT1/VEGFR1 = target: T2, FLT1/VEGFR1 (Homo sapiens, UniProt P17948); assay: Kinase IC50, 33P labeled isotope method
T2 sequence (P17948 827-1158 limits assumed): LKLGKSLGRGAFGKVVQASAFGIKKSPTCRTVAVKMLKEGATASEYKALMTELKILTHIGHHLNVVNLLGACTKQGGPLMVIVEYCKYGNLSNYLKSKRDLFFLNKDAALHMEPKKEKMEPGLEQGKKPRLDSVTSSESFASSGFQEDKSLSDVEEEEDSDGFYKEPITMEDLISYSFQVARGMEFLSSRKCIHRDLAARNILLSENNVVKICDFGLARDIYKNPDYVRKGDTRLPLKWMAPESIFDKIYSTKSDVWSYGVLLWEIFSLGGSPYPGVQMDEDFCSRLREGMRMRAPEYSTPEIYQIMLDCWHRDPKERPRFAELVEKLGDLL

FGFR3 = FGFR3 (Homo sapiens, UniProt P22607); assay: Kinase IC50, 33P labeled isotope method; details: 20 μM ATP
Sequence of FGFR3 (P22607 472-761 limits assumed): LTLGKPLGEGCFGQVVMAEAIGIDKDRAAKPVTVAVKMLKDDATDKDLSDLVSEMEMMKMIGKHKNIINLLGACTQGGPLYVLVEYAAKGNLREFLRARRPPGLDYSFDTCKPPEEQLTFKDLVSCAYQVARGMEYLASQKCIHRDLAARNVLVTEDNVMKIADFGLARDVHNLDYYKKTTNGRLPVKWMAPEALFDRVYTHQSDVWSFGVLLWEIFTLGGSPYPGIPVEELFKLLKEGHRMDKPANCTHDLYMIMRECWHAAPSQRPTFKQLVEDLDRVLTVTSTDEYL

CDK4/cyclin D1 = CDK4/cyclin D1 (Homo sapiens, UniProt P11802); assay: Kinase IC50, 33P labeled isotope method
CDK2/Cyclin A1 = CDK2/Cyclin A1 (Homo sapiens, UniProt P24941); assay: Kinase IC50, 33P labeled isotope method
JAK2 = JAK2 (Homo sapiens, UniProt O60674); assay: Kinase IC50, 33P labeled isotope method
Sequence of JAK2 (O60674 849-1124 limits assumed): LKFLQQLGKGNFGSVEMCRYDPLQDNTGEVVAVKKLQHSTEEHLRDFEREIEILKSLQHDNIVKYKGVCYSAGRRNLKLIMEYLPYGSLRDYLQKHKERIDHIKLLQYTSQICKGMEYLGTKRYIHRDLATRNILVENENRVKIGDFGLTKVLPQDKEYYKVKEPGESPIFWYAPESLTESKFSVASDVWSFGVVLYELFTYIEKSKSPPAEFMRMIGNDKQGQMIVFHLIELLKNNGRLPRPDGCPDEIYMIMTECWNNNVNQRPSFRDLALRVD

CDK7/cyclin H = CDK7/cyclin H (Homo sapiens, UniProt P50613); assay: Kinase IC50, 33P labeled isotope method
Aurora A = target: T3, Aurora A (Homo sapiens, UniProt O14965); assay: Inhibitory activity to Aurora A (FRET); details: read-out: Aurora A inhibition % (1 × 10^−6 mol/L)
T3 construct: purchased
T3 sequence (O14965 1-403): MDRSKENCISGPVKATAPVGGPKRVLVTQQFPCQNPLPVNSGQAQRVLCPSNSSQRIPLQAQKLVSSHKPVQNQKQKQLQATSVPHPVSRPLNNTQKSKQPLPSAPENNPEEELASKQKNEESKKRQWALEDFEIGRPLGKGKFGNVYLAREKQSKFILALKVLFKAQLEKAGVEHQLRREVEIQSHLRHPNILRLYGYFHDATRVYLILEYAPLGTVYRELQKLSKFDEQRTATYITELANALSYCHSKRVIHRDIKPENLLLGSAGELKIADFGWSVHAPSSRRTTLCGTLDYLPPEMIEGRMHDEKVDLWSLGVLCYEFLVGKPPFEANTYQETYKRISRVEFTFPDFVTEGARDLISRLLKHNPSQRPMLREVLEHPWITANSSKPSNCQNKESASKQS
Outline: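 FRET kinase assay of Aurora A with peptide substrate in HEPES pH 7.5, BRIJ-35, MgCl2, EDTA; 1 h reaction, then 1 h development before stop. Ex 400 nm, emission 445 nm (coumarin) and 520 nm (fluorescein); 0% and 100% phosphorylation controls set inhibition scale.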

JNK1 = JNK1 (Homo sapiens, UniProt P45983); assay: Kinase IC50, 33P labeled isotope method
Sequence of JNK1 (P45983 26-321 limits assumed): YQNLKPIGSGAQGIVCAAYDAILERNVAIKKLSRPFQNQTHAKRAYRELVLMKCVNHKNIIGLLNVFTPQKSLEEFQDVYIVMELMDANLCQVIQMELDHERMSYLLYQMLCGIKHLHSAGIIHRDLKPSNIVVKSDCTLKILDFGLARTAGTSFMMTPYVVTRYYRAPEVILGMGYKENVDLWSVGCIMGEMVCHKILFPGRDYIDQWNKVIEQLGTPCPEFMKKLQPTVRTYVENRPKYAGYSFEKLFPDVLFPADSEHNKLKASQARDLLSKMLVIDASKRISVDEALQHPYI

CDK2/cyclin A = CDK2/cyclin A (Homo sapiens, UniProt P24941); assay: Kinase IC50, 33P labeled isotope method
FGFR1 = FGFR1 (Homo sapiens, UniProt P11362); assay: Kinase IC50, 33P labeled isotope method
Sequence of FGFR1 (P11362 478-767 limits assumed): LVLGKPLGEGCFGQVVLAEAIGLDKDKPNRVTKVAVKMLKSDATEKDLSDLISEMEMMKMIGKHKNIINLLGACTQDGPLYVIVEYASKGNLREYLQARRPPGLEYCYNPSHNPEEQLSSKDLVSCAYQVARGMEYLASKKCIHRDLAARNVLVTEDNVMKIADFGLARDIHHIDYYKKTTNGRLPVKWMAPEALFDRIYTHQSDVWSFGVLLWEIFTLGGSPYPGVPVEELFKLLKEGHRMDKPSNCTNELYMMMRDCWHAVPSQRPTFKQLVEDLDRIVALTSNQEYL

CDK5/p35 = CDK5/p35 (Homo sapiens, UniProt Q00535); assay: Kinase IC50, 33P labeled isotope method
Sequence of CDK5/p35 (Q00535 4-286 limits assumed): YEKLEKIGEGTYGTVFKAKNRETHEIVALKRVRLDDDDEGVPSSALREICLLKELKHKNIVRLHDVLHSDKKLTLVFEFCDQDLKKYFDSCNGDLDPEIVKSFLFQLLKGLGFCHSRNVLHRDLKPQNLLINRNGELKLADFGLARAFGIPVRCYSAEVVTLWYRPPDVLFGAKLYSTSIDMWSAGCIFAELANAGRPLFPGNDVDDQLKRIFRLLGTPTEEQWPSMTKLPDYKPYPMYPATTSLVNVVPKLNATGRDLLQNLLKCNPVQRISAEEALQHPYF
Sequence of CDK5/p35 (Q15078 whole entry partner): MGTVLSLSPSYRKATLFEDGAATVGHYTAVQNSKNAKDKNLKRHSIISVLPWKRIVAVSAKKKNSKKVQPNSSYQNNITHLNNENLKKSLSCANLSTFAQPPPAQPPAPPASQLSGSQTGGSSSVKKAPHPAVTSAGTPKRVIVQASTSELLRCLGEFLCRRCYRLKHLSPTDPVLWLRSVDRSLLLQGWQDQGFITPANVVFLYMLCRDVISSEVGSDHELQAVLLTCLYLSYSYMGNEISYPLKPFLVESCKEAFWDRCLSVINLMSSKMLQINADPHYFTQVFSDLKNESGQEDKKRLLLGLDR

FGFR2 = FGFR2 (Homo sapiens, UniProt P21802); assay: Kinase IC50, 33P labeled isotope method
Sequence of FGFR2 (P21802 481-770 limits assumed): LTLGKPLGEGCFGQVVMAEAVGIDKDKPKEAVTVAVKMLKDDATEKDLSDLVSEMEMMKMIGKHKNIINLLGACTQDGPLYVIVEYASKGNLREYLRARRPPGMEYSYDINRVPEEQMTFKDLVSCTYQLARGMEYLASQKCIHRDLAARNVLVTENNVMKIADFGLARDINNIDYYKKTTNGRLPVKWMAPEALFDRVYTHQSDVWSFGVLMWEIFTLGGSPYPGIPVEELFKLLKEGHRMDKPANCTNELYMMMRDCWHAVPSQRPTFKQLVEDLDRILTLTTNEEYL

CDK1/cyclin A = CDK1/cyclin A (Homo sapiens, UniProt P06493); assay: Kinase IC50, 33P labeled isotope method
CDK2/A = target: T4, CDK2/A (Homo sapiens, UniProt P24941); assay: Inhibitory activity to CDK2 (FRET); details: read-out: CDK2 inhibition % (1 × 10^−6 mol/L)
T4 construct: purchased
Outline: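 FRET-based kinase assay using CDK2/cyclin A with peptide substrate in HEPES pH 7.5 buffer (MgCl2, BRIJ-35, EDTA). The kinase reaction ran 1 h, followed by development reagent for 1 h and a stop step. Inhibition calculated relative to phospho-peptide (100%) and ATP-free (0%) phosphorylation controls.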

KDR/VEGFR2 = KDR/VEGFR2 (Homo sapiens, UniProt P35968); assay: Kinase IC50, 33P labeled isotope method
Sequence of KDR/VEGFR2 (P35968 834-1162 limits assumed): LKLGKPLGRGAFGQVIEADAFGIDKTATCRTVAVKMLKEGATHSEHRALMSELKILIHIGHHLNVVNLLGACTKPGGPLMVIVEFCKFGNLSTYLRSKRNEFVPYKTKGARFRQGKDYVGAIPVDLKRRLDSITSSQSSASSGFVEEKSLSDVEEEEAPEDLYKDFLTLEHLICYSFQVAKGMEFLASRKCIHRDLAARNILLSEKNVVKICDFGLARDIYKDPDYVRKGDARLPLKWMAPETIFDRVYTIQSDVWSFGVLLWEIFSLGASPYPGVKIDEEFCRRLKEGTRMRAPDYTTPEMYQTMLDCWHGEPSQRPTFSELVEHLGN

[1] = 20 μM ATP, read-out: IC50* JNK2
[2] = 20 μM ATP, read-out: IC50* ERK7/MAPK15
[3] = 20 μM ATP, read-out: IC50* CDK3/cyclin E
[4] = 20 μM ATP, read-out: IC50* CDK1/cyclin E
[5] = 20 μM ATP, read-out: IC50* CDK1/cyclin B
[6] = 20 μM ATP, read-out: IC50* FLT1/VEGFR1
[7] = 20 μM ATP, read-out: IC50* CDK4/cyclin D1
[8] = 20 μM ATP, read-out: IC50* CDK2/Cyclin A1
[9] = 20 μM ATP, read-out: IC50* JAK2
[10] = 20 μM ATP, read-out: IC50* CDK7/cyclin H
[11] = 20 μM ATP, read-out: IC50* JNK1
[12] = 20 μM ATP, read-out: IC50* CDK2/cyclin A
[13] = 20 μM ATP, read-out: IC50* FGFR1
[14] = 20 μM ATP, read-out: IC50* CDK5/p35
[15] = 20 μM ATP, read-out: IC50* FGFR2
[16] = 20 μM ATP, read-out: IC50* CDK1/cyclin A
[17] = 20 μM ATP, read-out: IC50* KDR/VEGFR2

Sequence of JNK2 (P45984 26-321 limits assumed): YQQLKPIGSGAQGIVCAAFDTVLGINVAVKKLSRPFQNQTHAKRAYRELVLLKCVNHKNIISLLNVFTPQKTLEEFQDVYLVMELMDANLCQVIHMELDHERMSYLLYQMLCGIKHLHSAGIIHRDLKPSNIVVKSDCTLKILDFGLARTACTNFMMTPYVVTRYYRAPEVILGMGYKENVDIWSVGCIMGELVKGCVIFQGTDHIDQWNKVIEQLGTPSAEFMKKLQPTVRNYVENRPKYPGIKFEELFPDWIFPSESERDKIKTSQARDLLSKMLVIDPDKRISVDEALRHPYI

Row | SMILES | IC50 (JNK2; [1]) | IC50 (ERK7/MAPK15; [2]) | IC50 (CDK3/cyclin E; [3]) | IC50 (CDK1/cyclin E; [4]) | IC50 (CDK1/cyclin B; [5]) | IC50 (FLT1/VEGFR1; [6]) | IC50 (FGFR3) | IC50 (CDK4/cyclin D1; [7]) | IC50 (CDK2/Cyclin A1; [8]) | IC50 (JAK2; [9]) | IC50 (CDK7/cyclin H; [10]) | inhibition at 1 µM (Aurora A) | IC50 (JNK1; [11]) | IC50 (CDK2/cyclin A; [12]) | IC50 (FGFR1; [13]) | IC50 (CDK5/p35; [14]) | IC50 (FGFR2; [15]) | IC50 (CDK1/cyclin A; [16]) | inhibition at 1 µM (CDK2/A) | IC50 (KDR/VEGFR2; [17]) | further results
1 | Cc1cc2c(Nc3c[nH]nc3C(=O)Nc3ccc(CN4CCN(C)CC4)cc3)ncnc2s1 [Compound I-3, 4-(4-(6-methylthieno[2,3-d]pyrimidinyl)amino)-N-(4-((4-methyl-1-piperazinyl)methyl)phenyl)-1H-3-pyrazolecarboxamide] | 1170 nM | 7 nM | 171 nM | 87 nM | 79 nM | 19 nM | 723 nM | 6 nM | 9 nM | 716 nM | 495 nM | 75.2% | 1130 nM | 14 nM | 274 nM | 13 nM | 210 nM | 142 nM | 62.5% | 33 nM | –
2 | CN1CCN(Cc2ccc(NC(=O)c3n[nH]cc3Nc3ncnc4[nH]ccc34)cc2)CC1 [Compound I-11, 4-(4-(7H-pyrrolo[2,3-d]pyrimidinyl)amino)-N-(4-((4-methyl-1-piperazinyl)methyl)phenyl)-1H-3-pyrazolecarboxamide] | – | – | – | – | – | – | 657 nM | – | – | – | – | 64.3% | – | – | – | – | – | – | 67.9% | – | IC50 (JNK2): 1320 nM; IC50 (ERK7/MAPK15): 7 nM; IC50 (CDK3/cyclin E): 155 nM; IC50 (CDK1/cyclin E): 78 nM; IC50 (CDK1/cyclin B): 71 nM; IC50 (FLT1/VEGFR1): 19 nM; IC50 (CDK4/cyclin D1): 6 nM; IC50 (CDK2/Cyclin A1): 8 nM; IC50 (JAK2): 644 nM; IC50 (CDK7/cyclin H): 471 nM; IC50 (JNK1): 1240 nM; IC50 (CDK2/cyclin A): 13 nM; IC50 (FGFR1): 247 nM; IC50 (CDK5/p35): 12 nM; IC50 (FGFR2): 189 nM; IC50 (CDK1/cyclin A): 128 nM; IC50 (KDR/VEGFR2): 31 nM
3 | CN1CCN(Cc2ccc(NC(=O)c3n[nH]cc3Nc3ncnc4sccc34)cc2)CC1 [Compound I-1, 4-(4-thieno[2,3-d]pyrimidinylamino)-N-(4-((4-methyl-1-piperazinyl)methyl)phenyl)-1H-3-pyrazole carboxamide] | ≥ 1000 nM | – | – | 96 nM | 87 nM | – | 807 nM | – | – | 795 nM | 522 nM | 67.9% | ≥ 1000 nM | – | 304 nM | 15 nM | 233 nM | – | 70.9% | – | IC50 (ERK7/MAPK15): 7 nM; IC50 (CDK3/cyclin E): 190 nM; IC50 (FLT1/VEGFR1): 20 nM; IC50 (CDK4/cyclin D1): 6 nM; IC50 (CDK2/Cyclin A1): 9 nM; IC50 (CDK2/cyclin A): 15 nM; IC50 (CDK1/cyclin A): 157 nM; IC50 (KDR/VEGFR2): 35 nM
4 | Cc1cc2c(Nc3c[nH]nc3C(=O)Nc3ccc(CN4CCN(C)CC4)cc3)nccc2s1 [Compound I-27, 4-(4-(2-methylthieno[3,2-c]pyridyl)amino)-N-(4-((4-methyl-1-piperazinyl)methyl)phenyl)-1H-3-pyrazolecarboxamide] | 1380 nM | 8 nM | 198 nM | 100 nM | 91 nM | 22 nM | 841 nM | 7 nM | 10 nM | 826 nM | 575 nM | 67.8% | 1330 nM | 16 nM | 316 nM | 15 nM | 242 nM | 164 nM | 72.6% | 38 nM | –
5 | O=C(Nc1ccc(CN2CCOCC2)cc1)c1n[nH]cc1Nc1ncnc2sccc12 [Compound I-2, 4-(4-thieno[2,3-d]pyrimidinylamino)-N-(4-((4-morpholinyl)methyl)phenyl)-1H-3-pyrazolecarboxamide] | – | – | – | – | – | – | – | – | – | – | – | 52.2% | – | – | – | – | – | – | 46.6% | – | –
6 | CN1CCN(Cc2ccc(NC(=O)c3n[nH]cc3Nc3ncnc4occc34)cc2)CC1 [Compound I-21, 4-(4-furo[2,3-d]pyrimidinylamino)-N-(4-((4-methyl-1-piperazinyl)methyl)phenyl)-1H-3-pyrazolecarboxamide] | 1490 nM | 8 nM | 210 nM | 106 nM | 96 nM | 24 nM | 890 nM | 7 nM | 11 nM | 875 nM | 611 nM | 60.8% | 1430 nM | 17 nM | 335 nM | 16 nM | 257 nM | 173 nM | 66% | 41 nM | –
7 | Cc1cc2c(Nc3c[nH]nc3C(=O)Nc3ccc(CN4CCN(C)CC4)cc3)ncnc2[nH]1 [Compound I-13, 4-(4-(6-methyl-7H-pyrrolo[2,3-d]pyrimidinyl)amino)-N-(4-((4-methyl-1-piperazinyl)methyl)phenyl)-1H-3-pyrazolecarboxamide] | 1650 nM | 8 nM | 191 nM | 97 nM | 88 nM | 23 nM | 811 nM | 8 nM | 10 nM | 795 nM | 583 nM | 60.8% | 1550 nM | 15 nM | 305 nM | 15 nM | 234 nM | 158 nM | 67% | 39 nM | –
